In this experiment the target is Axl (Homo sapiens (Human), UniProt P30530). As to the kind of experiment: Phospho-Akt in-cell Western assay (Axl-antibody cross-linking stimulation). It is filed as cell-based. The conditions noted are these: inhibition of Axl activity. Summed up: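 HeLa cells on poly-L-lysine, starved 24 hrs with Axl/Fc, pre-treated with compound 1 hr at 37° C., then stimulated 5 min with Axl primary/secondary antibody cluster. Fixed cells probed for phospho-Akt by chemiluminescent in-cell Western; signal normalized to crystal violet cell number.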
Sequence of Axl (P30530 26-894): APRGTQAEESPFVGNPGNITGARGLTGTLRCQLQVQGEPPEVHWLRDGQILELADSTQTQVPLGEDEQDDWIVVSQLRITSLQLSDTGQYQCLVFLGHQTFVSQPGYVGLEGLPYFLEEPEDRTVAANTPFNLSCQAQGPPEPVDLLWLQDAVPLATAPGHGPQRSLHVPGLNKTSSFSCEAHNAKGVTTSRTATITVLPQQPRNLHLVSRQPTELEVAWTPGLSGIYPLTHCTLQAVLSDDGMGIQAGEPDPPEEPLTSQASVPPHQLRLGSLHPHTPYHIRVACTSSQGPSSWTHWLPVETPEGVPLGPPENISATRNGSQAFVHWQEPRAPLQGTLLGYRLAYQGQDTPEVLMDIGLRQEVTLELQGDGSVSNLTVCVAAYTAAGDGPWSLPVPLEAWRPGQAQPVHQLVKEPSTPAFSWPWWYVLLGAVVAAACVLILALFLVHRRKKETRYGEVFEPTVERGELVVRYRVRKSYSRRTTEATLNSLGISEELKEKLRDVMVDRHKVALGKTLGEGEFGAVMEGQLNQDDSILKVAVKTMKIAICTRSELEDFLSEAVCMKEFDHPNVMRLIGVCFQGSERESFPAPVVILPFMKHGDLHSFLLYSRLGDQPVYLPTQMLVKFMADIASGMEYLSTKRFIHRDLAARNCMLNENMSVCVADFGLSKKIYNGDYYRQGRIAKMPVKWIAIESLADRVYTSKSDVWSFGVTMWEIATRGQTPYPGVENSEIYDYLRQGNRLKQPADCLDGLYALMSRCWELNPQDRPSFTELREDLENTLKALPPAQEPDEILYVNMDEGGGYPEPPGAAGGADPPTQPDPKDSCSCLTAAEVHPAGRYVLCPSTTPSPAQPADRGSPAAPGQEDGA

Setting [1] is: phospho-Akt in-cell Western assay.
The mark [2] stands for this setting: Hela cells, phospho-Akt readout, Table 1, formula (Ia1).
Setting [3] is: Hela cells, phospho-Akt readout, Table 5, formula (Ia3).

In the case of `COc1cc2ncnc(-n3nc(Nc4ccc(N5CCN(C)CC5)c(C(N)=O)c4)nc3N)c2cc1OC` [Compound 121, 5-(5-amino-1-(6,7-dimethoxyquinazolin-4-yl)-1H-1,2,4-triazol-3-ylamino)-2-(4-methylpiperazin-1-yl)benzamide], under setting [1], the IC50 (commonly the point on the concentration scale where inhibition reaches its midpoint) was 1000 to 10000 nM. `CC(=O)N1CCN(c2ccc(Nc3nc(N)n(-c4nccc5ccccc45)n3)cc2)CC1` [Compound 88, 1-(4-(4-(5-amino-1-(isoquinolin-1-yl)-1H-1,2,4-triazol-3-ylamino)phenyl)piperazin-1-yl)ethanone] came in with a concentration for half-maximal inhibition (IC50) under setting [1] of 1000 to 10000 nM. On the same count and under the same terms, the result for `Nc1nc(Nc2ccc(N3CCN(C4CC5CCC4C5)CC3)cc2)nn1-c1nc2ccccc2s1` (stereo not shown) [Compound 96, 1-(benzo[d]thiazol-2-yl)-N^3-(4-(4-(bicyclo[2.2.1]heptan-2-yl)piperazin-1-yl)phenyl)-1H-1,2,4-triazole-3,5-diamine] reads 1000 to 10000 nM. Same read-out and setting: for `Nc1nc(Nc2ccc(N3CCN(C4CC5CCC4C5)CC3)c(F)c2)nn1-c1ncnc2sccc12` (stereo not shown) [Compound 196, 1-(thieno[2,3-d]pyrimidin-4-yl)-N^3-(3-fluoro-4-(4-(bicyclo[2.2.1]heptan-2-yl)-piperazin-1-yl)phenyl)-1H-1,2,4-triazole-3,5-diamine] the value was less than 1000 nM. The same measure, in the same setting: for `Nc1nc(Nc2ccc(N3CCN(C4CC5CCC4C5)CC3)cc2)nn1-c1ccccn1` (stereo not shown) [Compound 94, N^3-(4-(4-(bicyclo[2.2.1]heptan-2-yl)piperazin-1-yl)phenyl)-1-(pyridin-2-yl)-1H-1,2,4-triazole-3,5-diamine] the value was 1000 to 10000 nM. `COc1cc2nc(Cl)nc(-n3nc(Nc4ccc(OCCN5CCCC5)cc4)nc3N)c2cc1OC` [Compound 44, 1-(2-chloro-6,7-dimethoxyquinazolin-4-yl)-N^3-(4-(2-(pyrrolidin-1-yl)ethoxy)phenyl)-1H-1,2,4-triazole-3,5-diamine]: the 50% inhibitory concentration (IC50) under setting [2] is less than 1000 nM. Under setting [2], `Nc1nc(Nc2ccc(OCCN3CCCC3)cc2)nn1-c1ccc2ccccc2n1` [Compound 41, N^3-(4-(2-(pyrrolidin-1-yl)ethoxy)phenyl)-1-(quinolin-2-yl)-1H-1,2,4-triazole-3,5-diamine] gave an IC50 of less than 1000 nM. Under setting [3], `COc1cc2ncnc(-n3nc(Nc4ccc(C(=O)N5CCN(C6CCCC6)CC5)cc4)nc3N)c2cc1OC` [Compound 206, 1-(6,7-dimethoxyquinazolin-4-yl)-N^3-(4-(4-(cyclopentyl)piperazin-1-ylcarbonyl)phenyl)-1H-1,2,4-triazole-3,5-diamine] displayed a half-inhibitory concentration (IC50) of less than 1000 nM. Regarding `Cc1cc(Nc2nc(N)n(-c3nnc(C)c4ccsc34)n2)ccc1N1CCN(C2CC3CCC2C3)CC1` (stereo not shown) [Compound 217, 1-(4-methylthieno[3,2-d]pyridazin-7-yl)-N^3-(3-methyl-4-(4-(bicyclo[2.2.1]heptan-2-yl)-piperazin-1-yl)phenyl)-1H-1,2,4-triazole-3,5-diamine], the IC50 under setting [1] is less than 1000 nM.

Turning to `Nc1nc(Nc2ccc(-c3cnco3)cc2)nn1-c1nccc2ccccc12` [Compound 166, 1-(isoquinolin-1-yl)-N^3-(4-(oxazol-5-yl)phenyl)-1H-1,2,4-triazole-3,5-diamine], the IC50 under setting [3] was more than 20000 nM. On the same count and under the same terms, the result for `COc1cc2ncnc(-n3nc(Nc4ccc(C5CCN(C)CC5)cc4)nc3N)c2cc1OC` [Compound 168, 1-(6,7-dimethoxyquinazolin-4-yl)-N^3-(4-(1-methylpiperidin-4-yl)phenyl)-1H-1,2,4-triazole-3,5-diamine] reads less than 1000 nM. Under setting [2], `Nc1nc(Nc2ccc(OCCN3CCCC3)cc2)nn1-c1cc2c(nn1)-c1ccccc1CC2` [Compound 75, 1-(5,6-dihydrobenzo[h]cinnolin-3-yl)-N^3-(4-(2-(pyrrolidin-1-yl)ethoxy)phenyl)-1H-1,2,4-triazole-3,5-diamine] returned a 50% inhibitory concentration (IC50) of less than 1000 nM. Still for that read-out and setting: the result for `COc1cccc(-n2nc(Nc3ccc(OCCN4CCCC4)cc3)nc2N)n1` [Compound 30, 1-(6-methoxypyridin-2-yl)-N^3-(4-(2-(pyrrolidin-1-yl)ethoxy)phenyl)-1H-1,2,4-triazole-3,5-diamine] reads 1000 to 10000 nM. Take `Cc1cc(Nc2nc(N)n(-c3nnc(C)c4ccsc34)n2)ccc1N1CCN([C@H]2C[C@@H]3CC[C@H]2C3)CC1` [Compound 232, 1-(4-methylthieno[3,2-d]pyridazin-7-yl)-N^3-(3-methyl-4-(4-((1S,2S,4R)-bicyclo[2.2.1]heptan-2-yl)piperazin-1-yl)phenyl)-1H-1,2,4-triazole-3,5-diamine]: the 50% inhibitory concentration (IC50) under setting [1] is less than 1000 nM. As for `Nc1nc(Nc2ccc(N3CCN([C@H]4C[C@@H]5CC[C@H]4C5)CC3)c(F)c2)nn1-c1ccc(-c2ccccc2)nn1` [Compound 229, 1-(6-phenylpyridazin-3-yl)-N^3-(3-fluoro-4-(4-((1S,2S,4R)-bicyclo[2.2.1]heptan-2-yl)piperazin-1-yl)phenyl)-1H-1,2,4-triazole-3,5-diamine], the half-inhibitory concentration (IC50) under setting [1] was in the range of 1000 to 10000 nM. Under setting [2], `CNc1cccc(-n2nc(Nc3ccc(OCCN4CCCCC4)cc3)nc2N)n1` [Compound 35, 1-(6-(methylamino)pyridin-2-yl)-N^3-(4-(2-(piperidin-1-yl)ethoxy)phenyl)-1H-1,2,4-triazole-3,5-diamine] came in with an IC50 of 1000 to 10000 nM. On the same count and under the same terms, for `Nc1nc(Nc2ccc(OCCN3CCCC3)cc2)nn1-c1cccc(Cl)n1` [Compound 16, 1-(6-chloropyridin-2-yl)-N^3-(4-(2-(pyrrolidin-1-yl)ethoxy)phenyl)-1H-1,2,4-triazole-3,5-diamine] the value was 1000 to 10000 nM. Still for that read-out and setting: for `Nc1nc(Nc2ccc(OCCN3CCCC3)cc2)nn1-c1ncccn1` [Compound 47, 1-(pyrimidin-2-yl)-N^3-(4-(2-(pyrrolidin-1-yl)ethoxy)phenyl)-1H-1,2,4-triazole-3,5-diamine] the value was more than 20000 nM.

Under “Hela cells, phospho-Akt readout, Table 4, formula (Ib2)”, `Nc1nc(Nc2ccc(N3CCN(C4CC5CCC4C5)CC3)cc2)n(-c2nc3ccccc3s2)n1` (stereo not shown) [Compound 95, 1-(benzo[d]thiazol-2-yl)-N^5-(4-(4-(bicyclo[2.2.1]heptan-2-yl)piperazin-1-yl)phenyl)-1H-1,2,4-triazole-3,5-diamine] returned a half-maximal inhibitory concentration (IC50) of more than 20000 nM. Turning to `Nc1nc(Nc2ccc(OCCN3CCCCC3)cc2)nn1-c1ccnc(Cl)c1` [Compound 10, 1-(2-chloropyridin-4-yl)-N^3-(4-(2-(piperidin-1-yl)ethoxy)phenyl)-1H-1,2,4-triazole-3,5-diamine], under setting [2], the IC50 is more than 20000 nM. `Nc1nc(Nc2ccc(N3CCN([C@H]4C[C@@H]5CC[C@H]4C5)CC3)cc2)nn1-c1nc(Cl)nc2ccsc12` [Compound 179, 1-(2-chlorothieno[3,2-d]pyrimidin-4-yl)-N^3-(4-(4-((1S,2S,4R)-bicyclo[2.2.1]heptan-2-yl)-piperazin-1-yl)phenyl)-1H-1,2,4-triazole-3,5-diamine] returned a concentration for half-maximal inhibition (IC50) under setting [1] of less than 1000 nM. With `Nc1nc(Nc2ccc(OCCN3CCCC3)cc2)nn1-c1nccc2occc12` [Compound 69, 1-(furo[3,2-c]pyridin-4-yl)-N^3-(4-(2-(pyrrolidin-1-yl)ethoxy)phenyl)-1H-1,2,4-triazole-3,5-diamine], the IC50 under setting [2] was less than 1000 nM. Compound `CN1CCC(c2ccc(Nc3nc(N)n(-c4nccc5ccccc45)n3)cc2)CC1` [Compound 167, 1-(isoquinolin-1-yl)-N^3-(4-(1-methylpiperidin-4-yl)phenyl)-1H-1,2,4-triazole-3,5-diamine] gave an IC50 under setting [3] of less than 1000 nM. In turn, `Cn1c(-n2nc(Nc3ccc(OCCN4CCCC4)c(Cl)c3)nc2N)nc2ccccc21` [Compound 40, N^3-(3-chloro-4-(2-(pyrrolidin-1-yl)ethoxy)phenyl)-1-(1-methyl-1H-benzo[d]imidazol-2-yl)-1H-1,2,4-triazole-3,5-diamine] came in with an IC50 under setting [2] of less than 1000 nM.

`Nc1nc(Nc2ccc(N3CCN(C4CC5CCC4C5)CC3)cc2)nn1-c1ncnc2sc3c(c12)CCC3` (stereo not shown) [Compound 132, N^3-(4-(4-(bicyclo[2.2.1]heptan-2-yl)piperazin-1-yl)phenyl)-1-(6,7-dihydro-5H-cyclopenta[4,5]thieno[2,3-d]pyrimidin-4-yl)-1H-1,2,4-triazole-3,5-diamine] returned an IC50 under setting [1] of 1000 to 10000 nM. Under setting [2], `COc1cc2ncnc(-n3nc(Nc4ccc(OCCN5CCCC5)cc4)nc3N)c2cc1OC` [Compound 45, 1-(6,7-dimethoxyquinazolin-4-yl)-N^3-(4-(2-(pyrrolidin-1-yl)ethoxy)phenyl)-1H-1,2,4-triazole-3,5-diamine] came in with a concentration for half-maximal inhibition (IC50) of less than 1000 nM. As for `CC(C)(C)c1cc2ncnc(-n3nc(Nc4ccc(N5CCN(C6CC7CCC6C7)CC5)cc4)nc3N)c2s1` (stereo not shown) [Compound 187, 1-(6-(1,1-dimethylethyl)thieno[3,2-d]pyrimidin-4-yl)-N^3-(4-(4-(bicyclo[2.2.1]heptan-2-yl)-piperazin-1-yl)phenyl)-1H-1,2,4-triazole-3,5-diamine], the half-inhibitory concentration (IC50) under setting [1] is less than 1000 nM.

`Nc1nc(Nc2ccc(N3CCN([C@H]4C[C@@H]5CC[C@H]4C5)CC3)c(Cl)c2)nn1-c1ncnc2sccc12` [Compound 244, 1-thieno[2,3-d]pyrimidin-4-yl-N^3-(3-chloro-4-(4-((1S,2S,4R)-bicyclo[2.2.1]heptan-2-yl)piperazin-1-yl)phenyl)-1H-1,2,4-triazole-3,5-diamine] came in with an IC50 under setting [1] of less than 1000 nM.

As for `Nc1nc(Nc2ccc(OCCN3CCCC3)cc2)nn1-c1nc(O)c2c(n1)CCCC2` [Compound 76, 2-(5-amino-3-(4-(2-(pyrrolidin-1-yl)ethoxy)phenylamino)-1H-1,2,4-triazol-1-yl)-5,6,7,8-tetrahydroquinazolin-4-ol], the IC50 under setting [2] was more than 20000 nM. As for `Nc1nc(Nc2ccc(N3CCN(C4CCCCC4)CC3)cc2)nn1-c1ncc2c(n1)-c1ccccc1CC2` [Compound 93, N^3-(4-(4-cyclohexylpiperazin-1-yl)phenyl)-1-(5,6-dihydrobenzo[h]quinazolin-2-yl)-1H-1,2,4-triazole-3,5-diamine], the half-inhibitory concentration (IC50) under setting [1] is less than 1000 nM.

On to `CNc1nc(Nc2ccc(OCCN3CCCC3)cc2)nn1-c1ccccn1` [Compound 6, N^5-methyl-1-(pyridin-2-yl)-N^3-(4-(2-(pyrrolidin-1-yl)ethoxy)phenyl)-1H-1,2,4-triazole-3,5-diamine], for which, under setting [2], the half-inhibitory concentration (IC50) is more than 20000 nM.

(Values after US10166216B2 (Rigel Pharmaceuticals, Inc., priority 2006, dated 2019).)
